Source: patent US10045530B2, “Agricultural pheromone compositions comprising positional isomers” (PROVIVI, INC., priority 2015, dated 2018)
Where two headings read alike, the source gives them in different places.

Tests used:
LadA = target: T1, LadA (Geobacillus thermodenitrificans, UniProt A4IU28); conditions: terminal hydroxylation; by alkane/FA chain length; cited from earlier work
T1 sequence (A4IU28 1-440): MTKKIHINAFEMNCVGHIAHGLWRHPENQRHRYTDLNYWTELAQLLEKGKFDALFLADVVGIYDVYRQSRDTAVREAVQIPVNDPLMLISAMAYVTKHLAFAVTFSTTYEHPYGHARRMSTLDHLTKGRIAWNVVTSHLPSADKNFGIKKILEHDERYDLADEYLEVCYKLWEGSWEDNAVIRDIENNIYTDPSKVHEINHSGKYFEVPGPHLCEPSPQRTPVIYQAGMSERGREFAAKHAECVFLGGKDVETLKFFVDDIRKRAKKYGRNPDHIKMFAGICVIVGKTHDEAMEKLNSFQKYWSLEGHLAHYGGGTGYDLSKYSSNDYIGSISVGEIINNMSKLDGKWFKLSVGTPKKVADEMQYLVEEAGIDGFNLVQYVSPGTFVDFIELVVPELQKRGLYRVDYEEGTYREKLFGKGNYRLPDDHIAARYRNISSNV

CYP52A3 = target: T2, CYP52A3 (Candida maltosa, UniProt P16496); conditions: terminal hydroxylation; by alkane/FA chain length; cited from earlier work
T2 sequence (P16496 2-523 limits assumed): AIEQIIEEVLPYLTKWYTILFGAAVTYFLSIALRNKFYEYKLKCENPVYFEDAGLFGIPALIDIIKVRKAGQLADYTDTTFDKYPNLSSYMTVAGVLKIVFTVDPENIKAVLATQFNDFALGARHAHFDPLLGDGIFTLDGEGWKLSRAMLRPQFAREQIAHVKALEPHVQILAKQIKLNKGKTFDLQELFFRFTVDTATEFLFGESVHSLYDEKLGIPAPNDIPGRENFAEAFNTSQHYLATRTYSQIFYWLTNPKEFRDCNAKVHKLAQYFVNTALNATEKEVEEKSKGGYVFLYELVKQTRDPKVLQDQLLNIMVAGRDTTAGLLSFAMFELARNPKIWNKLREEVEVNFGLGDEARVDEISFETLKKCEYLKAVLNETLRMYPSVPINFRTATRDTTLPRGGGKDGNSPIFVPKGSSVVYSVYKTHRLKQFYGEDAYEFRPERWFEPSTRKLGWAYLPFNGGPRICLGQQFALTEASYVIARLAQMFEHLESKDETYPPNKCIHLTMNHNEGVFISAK

CYP52A4 = target: T3, CYP52A4 (Candida maltosa, UniProt P16141); conditions: terminal hydroxylation; by alkane/FA chain length; cited from earlier work
T3 sequence (P16141 1-538): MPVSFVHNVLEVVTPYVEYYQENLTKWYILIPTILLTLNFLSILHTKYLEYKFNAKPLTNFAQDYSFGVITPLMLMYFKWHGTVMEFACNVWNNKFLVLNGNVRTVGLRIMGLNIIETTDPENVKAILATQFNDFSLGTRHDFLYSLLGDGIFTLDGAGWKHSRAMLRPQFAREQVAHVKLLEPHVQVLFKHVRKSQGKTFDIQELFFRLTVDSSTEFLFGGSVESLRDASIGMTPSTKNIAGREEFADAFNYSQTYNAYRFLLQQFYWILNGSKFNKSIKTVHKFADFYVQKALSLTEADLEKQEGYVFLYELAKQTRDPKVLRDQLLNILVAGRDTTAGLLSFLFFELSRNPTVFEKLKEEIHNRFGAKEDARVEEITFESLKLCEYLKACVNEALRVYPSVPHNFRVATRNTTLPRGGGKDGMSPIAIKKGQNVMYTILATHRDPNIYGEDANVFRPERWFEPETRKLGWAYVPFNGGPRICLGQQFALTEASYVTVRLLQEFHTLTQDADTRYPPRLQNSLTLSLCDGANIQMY

CYP52A21 = conditions: cited from earlier work
alkB2 Gordonia sp TF6 = conditions: terminal hydroxylation; 100% relative activity obtained with hexane; cited from earlier work
AlkB P. putida GPo1 = target: T4, AlkB P. putida GPo1 (Ectopseudomonas oleovorans, UniProt P12691); conditions: terminal hydroxylation; by alkane/FA chain length; cited from earlier work
T4 sequence (P12691 1-401): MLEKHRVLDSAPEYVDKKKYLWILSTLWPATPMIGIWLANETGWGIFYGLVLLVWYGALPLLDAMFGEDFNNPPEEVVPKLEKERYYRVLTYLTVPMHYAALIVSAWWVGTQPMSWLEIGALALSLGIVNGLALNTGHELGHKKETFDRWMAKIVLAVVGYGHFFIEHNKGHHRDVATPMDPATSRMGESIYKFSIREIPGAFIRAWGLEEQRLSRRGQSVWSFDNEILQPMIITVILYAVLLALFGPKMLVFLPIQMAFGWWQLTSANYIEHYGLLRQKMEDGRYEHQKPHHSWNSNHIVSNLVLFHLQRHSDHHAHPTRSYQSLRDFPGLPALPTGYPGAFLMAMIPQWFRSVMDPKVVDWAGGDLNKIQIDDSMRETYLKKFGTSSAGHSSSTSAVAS

CYP153A6 = conditions: cited from earlier work
CYP153A16 = conditions: cited from earlier work
CYP153A P. sp. = conditions: cited from earlier work
Helicoverpa zea = assay: Wind tunnel bioassay: upwind flight and lure location of male moths; assay type: in vivo; conditions: conclusions from 8.1-8.2
Method: Four separate experiments were conducted with the moth Helicoverpa zea and its respective pheromone components (Z-11-hexadecenal, Z-9-hexadecenal). Further, the addition of Z-5-hexadecenal, the positional isomer of the natural insect Z-11-hexadecenal pheromone, was also added to the Z-11 and Z-9 blends and tested. Upwind flight and lure location of male moths were compared for: natural ratios of pheromone (97% Z-11-hexadecenal with 3% of Z-9-hexadecenal) with and without addition of the Z-5-hexadecenal positional isomer at various ratios.
Moths (4-6 day-old males in second half of scotophase) were flown in a glass wind tunnel (120×30×30 cm). A fan pushed air into the wind tunnel at 0.4 m sec^−1 and a second fan exhausted air at a similar rate. To provide visual cues for navigation, the floor was covered with light colored construction paper on which small (2-5 cm) circles were drawn with marker (Experiment 1) or light colored circles that were cut from light colored construction paper were placed on the floor (Experiments 2-4). Lures were made with Soxhlet-extracted, grey-rubber septa from West. […]
A moth in a release cage was held on a platform 20 cm above the floor for 15 s in the plume of pheromone and then released by turning open end of the cage toward upwind. […] Flights were recorded on video and data were collected from videos. […]

[1] = terminal hydroxylation, by alkane/FA chain length

| SMILES | Relative activity, LadA (Feng et al., 2007, Proc. Natl. Acad. Sci. U.S.A. 104: 5602-5607) (LadA) | Relative activity, CYP52A3 (Scheller et al., 1996, Arch. Biochem Biophys. 328: 245-254) (CYP52A3) | Relative activity, CYP52A4 (Scheller et al., 1996, Arch. Biochem Biophys. 328: 245-254) (CYP52A4) | Relative activity, alkB2 Gordonia sp TF6 (Fujii et al., 2004, Biosci. Biotechnol. Biochem. 68: 2171-2177) (alkB2 Gordonia sp TF6) [%] | further results |
| --- | --- | --- | --- | --- | --- |
| CCCCCCCCCCCCCCCCCCCCCCCC [C24] | 65 |  |  |  |  |
| CCCCCCCCCCCCCCCC(=O)O [C16 FA (Palmetic)] |  | 35 | 18 |  | Relative activity, CYP52A21 (Kim et al., 2007, Arch. Biochem. Biophys. 464: 213-220) (CYP52A21; [1]): 29 |
| CCCCCCCCCCCC [C12] |  | 41 | 37 | 34 |  |
| CCCCCCCCCCCC(=O)O [C12 FA (lauric)] |  | 20 | 100 |  | Relative activity, CYP52A21 (Kim et al., 2007, Arch. Biochem. Biophys. 464: 213-220) (CYP52A21; [1]): 100 |
| CCCCCCCCCCCCCC(=O)O [C14 FA (Myristic)] |  |  |  |  | Relative activity, CYP52A21 (Kim et al., 2007, Arch. Biochem. Biophys. 464: 213-220) (CYP52A21): 86 |
| CCCCCCCCCCCCCCCC [C16] | 100 | 100 | 33 |  |  |
| CCCCCCCCCCCCCCC [C15] | 83 |  |  |  |  |
| CCCCCCCCCCC [C11] |  |  |  | 48 | Relative activity, AlkB P. putida GPo1 (Vanbeilen et al., 1994, Enzyme Microb. Technol. 16: 904-911) (AlkB P. putida GPo1): 6; Relative activity, CYP153A6 (Funhoff et al., 2006, J. Bacteriol. 188: 5220-5227) (CYP153A6): 1; Relative activity, CYP153A16 (Scheps et al., 2011, Org. Biomol. Chem. 9: 6727-6733) (CYP153A16): <8; Relative activity, CYP153A P. sp. (Scheps et al., 2011, Org. Biomol. Chem. 9: 6727-6733) (CYP153A P. sp.): <6 |
| CCCCCCCCCC/C=C\CCCC=O [Z-5-hexadecedenal, Z-5-hexadecenal] |  |  |  |  | upwind flight response (Helicoverpa zea): triggers a similar upwind flight response |
| CCCCCCCCC [C9] |  |  |  | 63 | Relative activity, AlkB P. putida GPo1 (Vanbeilen et al., 1994, Enzyme Microb. Technol. 16: 904-911) (AlkB P. putida GPo1): 100; Relative activity, CYP153A6 (Funhoff et al., 2006, J. Bacteriol. 188: 5220-5227) (CYP153A6): 82; Relative activity, CYP153A16 (Scheps et al., 2011, Org. Biomol. Chem. 9: 6727-6733) (CYP153A16): 29; Relative activity, CYP153A P. sp. (Scheps et al., 2011, Org. Biomol. Chem. 9: 6727-6733) (CYP153A P. sp.): 69 |
| CCCCCCCCCCCCCCCCCC [C18] | 78 | 48 | 20 |  |  |
| CCCCCCCCCC [C10] |  |  |  | 66 | Relative activity, AlkB P. putida GPo1 (Vanbeilen et al., 1994, Enzyme Microb. Technol. 16: 904-911) (AlkB P. putida GPo1): 60; Relative activity, CYP153A6 (Funhoff et al., 2006, J. Bacteriol. 188: 5220-5227) (CYP153A6): 23; Relative activity, CYP153A16 (Scheps et al., 2011, Org. Biomol. Chem. 9: 6727-6733) (CYP153A16): 13; Relative activity, CYP153A P. sp. (Scheps et al., 2011, Org. Biomol. Chem. 9: 6727-6733) (CYP153A P. sp.): 60 |
| CCCCCCCC [C8] |  |  |  | 72 | Relative activity, AlkB P. putida GPo1 (Vanbeilen et al., 1994, Enzyme Microb. Technol. 16: 904-911) (AlkB P. putida GPo1): 95; Relative activity, CYP153A6 (Funhoff et al., 2006, J. Bacteriol. 188: 5220-5227) (CYP153A6): 100; Relative activity, CYP153A16 (Scheps et al., 2011, Org. Biomol. Chem. 9: 6727-6733) (CYP153A16): 100; Relative activity, CYP153A P. sp. (Scheps et al., 2011, Org. Biomol. Chem. 9: 6727-6733) (CYP153A P. sp.): 100 |
| CCCCCCCCCCCCCCCCCCCCCC [C22] | 74 |  |  |  |  |
| CCCCCCCCCCCCCCCCCC(=O)O [C18 FA (Stearic)] |  | 30 | 1 |  |  |
